One test has as its system TNF-α production. Kind of test: Inhibitory effect on TNF-α production in mice (LPS). Format: in vivo, BALB/c mice. As to conditions: Mus musculus, 1.5 h; oral administration of 30 mg/kg, LPS 5 μg i.p. 60 minutes later, plasma after 90 minutes; read-out: TNF-α production suppressing action.
The test system of test [1] is rat spinal canal stenosis (cauda equina compression-induced walking dysfunction) model. Kind of test: Rat spinal canal stenosis model, walking ability test. Format: in vivo. As to conditions: treadmill; for walk distance compared with the solvent repetitive administration group: 14th day of repetitive administration; for Inventive compound repetitive administration group (average distance (m)): 14th day of repetitive administration started 4th day after operation, 7 or 8 animals. The source says: A rat spinal canal stenosis (cauda equina compression-induced walking dysfunction) model can be prepared according to the method of Nakai, K et al. (Anesth. Analg., 94, pp. 1537-1541 (2002)) or the like. Namely, a rat is anesthetized with pentobarbital sodium, shaved on the back, and fixed in the abdominal position. After disinfection on the back with Isodine Surgical Scrub (Meiji Seika), a lumbar part is cut open along the median to expose the spine. Then, a silicone rubber of 1×4×1.5 mm (height×length×width) is inserted into the fifth lumbar vertebral canal from a small hole on the vertebral arch. Benzylpenicillin potassium (Crystalline Penicillin G Potassium Meiji, Meiji Seika) is dropped on the opened lesion and intramuscularly injected in the femoral region for the purpose of evasion of infectious diseases. The muscles and skin of the opened lesion are sutured with a ligature, and Isodine Surgical Scrub is applied to the sutured portion. Animals of sham group are also prepared according to the aforementioned method, provided that silicone rubber is not inserted.
In walking ability test, evaluation is performed by using a treadmill (Muromachi Kikai). A rat is placed on a traveling belt, adapted to the environment more than 3 minutes under a grid-electrified condition (0.04 to 4 mA), and then made to start walking from a velocity of 10 m/min, and then the velocity is increased by 5 m/min every 3 minutes. The walk is stopped, and electrical stimulation (0.04 to 4 mA) is applied to the rat which has moved to the grid for electrical stimulation provided before the traveling belt. Distance which the animal walked after the animal started the walk until the animal became unable to walk, i.e., the animal came not to walk even if a stimulation (sound, contact, electricity) was added to the animal to urge it to walk, was calculated from the walking time. Before the operation, the walking function test is carried out 3 times to perform training of walk. From the 4th day after the operation, repetitive administration of each compound of the present invention as a test compound was started, and the walking ability test was performed on the 14th day of the administration for the measurement.
Each group consisted of 7 or 8 animals, and the average distance before the administration was the average for the animals of both groups. […] It was confirmed that the compounds of the present invention were useful as medicaments for therapeutic treatment of a disease accompanied by walking dysfunction such as spinal canal stenosis.

Another test relates to intraocular pressure. Kind of test: Intraocular pressure reduction enhancing action in monkey. Type of test: in vivo. As to conditions: cynomolgus monkey, 0.01 weight % aqueous solution, 30 μL. Here is the method:
Moreover, as for the test compound used for combination use, similar effect can be obtained also with the compounds of the present invention represented with the example numbers mentioned in Test Example 3. The test is performed by using cynomolgus monkeys sufficiently naturalized for the operation of fixation on a monkey chair and ophathalmotonometry.
As the test compound, the 19-1 compound is dissolved in physiological saline, and the solution is neutralized by addition of sodium hydroxide (pH 7.0 to 8.0) to prepare a 0.01 weight % aqueous solution (19-1 compound aqueous solution). As a drug for combination use, latanoprost (trade name: Xalatan, Pfizer) is used as the marketed formulation per se. The test aqueous solution or the drug for combination use is instilled to the left eye, and the right eye is not treated (control eye). […] After initial intraocular pressure values of the monkeys are measured for each group, 30 μL of physiological saline is instilled to the control group, single drug group 1, and single drug group 2, and latanoprost is instilled in the same volume to the combination use group. […] Then, the intraocular pressure is measured over time for each group.

The test system of test [2] is thoracic aorta ring sample. The experiment in a line: Rat vascular smooth muscle relaxing action (phenylephrin contraction). As to conditions: cumulative phenylephrin, contraction relative to 60 mM KCl. As for the experimental part:
Examination of rat vascular smooth muscle relaxing action was performed as follows. A rat was anesthetized with pentobarbital sodium, and bled from the carotid artery, and then the thoracic aorta was extracted. The extracted vessel was immersed in ice-cooled Krebs-Henseleit nutrient solution bubbled with a mixed gas of 95% O2+5% CO2 to wash out the blood in the internal cavity of the vessel with the nutrient solution, and then stored overnight in the nutrient solution at 4° C. Then, connective tissues and lipids were removed from the vessel under a stereoscopic microscope, and a ring sample having a width of about 3 mm was prepared. The ring sample was hung in an organ bath containing the nutrient solution of 37° C., and a resting tension of 2.5 g was loaded on the sample. After the ring sample was stabilized for about 90 minutes, it was confirmed that a contraction reaction could be obtained by addition of 60 mM KCl alone. A test drug was added to the nutrient solution at an appropriate final concentration, and incubation was performed for 10 minutes. Then, phenylephrin was cumulatively added so that the concentration should become 1 nM, 10 nM, 100 nM, 1 μM and 10 μM.

Data on four molecules can be found in patent US7964613B2 (Asahi Kasei Pharma Corporation, priority 2007, dated 2011).

Bounds are passed on as bounds.

By IC50 is commonly meant the point on the concentration scale where inhibition reaches its midpoint.

Take `CN[C@H]1CCN(S(=O)(=O)c2cccc3cncc(C)c23)C1` [Example 8-3]: the inhibition in vivo at 30 mg/kg with TNF-α production was not below 50%. Besides, in test [1], the “walk distance compared with the solvent repetitive administration group” value is on record as “extended the walk distance” and the “Inventive compound repetitive administration group (average distance (m))” value amounted to 224 m.

For `N[C@H]1CCN(S(=O)(=O)c2cccc3cncc(Cl)c23)C1` [Example 19-1, (S)-3-Amino-1-(4-chloro-5-isoquinolinesulfonyl)pyrrolidine], in the test on intraocular pressure, the “intraocular pressure reducing action in single drug group 1” value is “exceeding that of the control group”. The inhibition in vivo at 30 mg/kg in the test with TNF-α production was not below 50%.

For `CN[C@H]1CCN(S(=O)(=O)c2cccc3cncc(Cl)c23)C1` [Example 19-3, (S)-1-(4-Chloro-5-isoquinolinesulfonyl)-3-(methylamino)pyrrolidine], the inhibition in vivo at 30 mg/kg with TNF-α production was not below 50%. In addition, the IC50 in test [2] was found to be 300 nM. Also, in test [1], the “walk distance compared with the solvent repetitive administration group” value was “extended the walk distance” and the “Inventive compound repetitive administration group (average distance (m))” value is on record as 285 m.

Regarding `CN[C@H]1CCN(S(=O)(=O)c2cccc3c(O)ncc(Cl)c23)C1` [Example 36-1, (S)-1-(1-Hydroxy-4-chloro-5-isoquinolinesulfonyl)-3-(methylamino)pyrrolidine], the inhibition in vivo at 30 mg/kg in the test with TNF-α production is not below 50%. For the same molecule, the IC50 in test [2] came out at 100 nM. Further, in test [1], the “walk distance compared with the solvent repetitive administration group” value was “extended the walk distance” and the “Inventive compound repetitive administration group (average distance (m))” value came out at 298 m.
